Like-named read-outs stand apart in the source and are kept apart here.

The subject of data set [1] is IgG. Kind of data set: IgG/Au staining of coated polystyrene, type of endgroups. Here is the method: Except where indicated, the non-ionic surfactants were applied to the hydrophobic surfaces being tested as a 0.1% (weight/volume) solution in isopropanol. A sufficient amount of coating solution was used to cover the surface being testing with a thin layer of the solution (e.g., 25 μl of the solution per well for a standard 24-well plate). In some cases, the solution was applied to surface by spraying; in others, it was poured onto the surface (into the well). Except where indicated, coated samples were either dried at 70° C. for 30 minutes in an air circulated oven or dried at room temperature overnight to evaporate the isopropanol. Protein binding was determined in some examples using a colloidal gold straining procedure. In accordance with this procedure, colloidal gold becomes electrostatically attached to bound protein and is detected by measuring absorbance at 550 nanometers. Bio-Rad Laboratories' Colloidal Gold Total Protein Stain was used for this purpose, with absorbance being measured with a Cambridge Technologies Plate Reader (No. 7520). The non-ionic surfactants listed in Table 6 were tested for their ability to produce a low binding surface using the techniques described in Materials and Methods. Polystyrene was used as the hydrophobic test surface and IgG/Au staining was used as the readout.

Data set [2] deals with Horse IgG. Kind of data set: Protein binding by colloidal gold staining, coated medium binding polystyrene plates. As to conditions: coated medium binding PS; IgG 10 μg/ml, pH 9.4. Here is the method: Except where indicated, the non-ionic surfactants were applied to the hydrophobic surfaces being tested as a 0.1% (weight/volume) solution in isopropanol. A sufficient amount of coating solution was used to cover the surface being testing with a thin layer of the solution (e.g., 25 μl of the solution per well for a standard 24-well plate). In some cases, the solution was applied to surface by spraying; in others, it was poured onto the surface (into the well). Except where indicated, coated samples were either dried at 70° C. for 30 minutes in an air circulated oven or dried at room temperature overnight to evaporate the isopropanol.
Protein binding was determined in some examples using a colloidal gold straining procedure. In accordance with this procedure, colloidal gold becomes electrostatically attached to bound protein and is detected by measuring absorbance at 550 nanometers. Bio-Rad Laboratories' Colloidal Gold Total Protein Stain was used for this purpose, with absorbance being measured with a Cambridge Technologies Plate Reader (No. 7520).
The surfactants were coated onto medium binding polystyrene plates (Corning Costar No. 2587) as described in Material and Methods.
The plates were incubated with IgG as follows: 0.1 ml of Horse IgG (Pierce Labs) at a working concentration of 10 μg/ml in 0.10M NaHCO3 buffer (pH9.4) were added to each well, incubated 30 minutes on a rocker table, and rinsed with dI H2O. The plates were gold stained overnight (0.3 ml/well), rinsed in dI H2O, air dried, and absorbance was measured at 550 nm.

Data set [3] deals with BSA protein (Bovine Serum Albumin, Fraction V). Kind of data set: BSA binding to coated polystyrene 24-well plates at different pH, colloidal gold stain. The conditions noted are these: for Absorbance (550 nm) pH = 9.2: BSA 10 μg/ml in 0.10 M NaHCO3 buffer; for Absorbance (550 nm) pH = 7.4: BSA 10 μg/ml in 0.10 M PBS; for Absorbance (550 nm) pH = 4.6: BSA 10 μg/ml in 0.10 M acetate buffer. Here is the method:
Polystyrene plates having 24 wells (Corning Costar #9447) were coated as described in Materials and Methods.
BSA protein (Bovine Serum Albumin, Fraction V, Sigma) was prepared at 10 μg/ml in 0.10 M acetate buffer (pH=4.6), in 0.10 M PBS (pH=7.4), and in 0.10 M NaHCO3 buffer (pH=9.2). Wells of each coated plate, along with uncoated controls, were aliquoted 0.50 ml each of the protein solutions. The samples were run in triplicate.
The plates were placed on a rocker table for 30 minutes at 23° C. The protein solutions were then emptied from the plates, and the wells were rinsed three times with dl H2O. Thereafter, 1.0 ml of colloidal gold stain was added to each well (see Materials and Methods). The plates were placed on a rocker table overnight, rinsed three times with dI H2O, and air dried. Absorbance at 550 nm was then read using the Cambridge Technologies Plate Reader.

In data set [4] the test system is bound protein. Kind of data set: Colloidal gold staining of bound protein after MDCK culture in media containing 5% FBS, visual. As to conditions: colloidal gold after cell culture, visual observation. Here is the method:
The procedures used were as follows. Polystyrene 24-well plates were coated with the non-ionic surfactants listed in Table 5 in accordance with the procedures described in Materials and Methods. Uncoated plates were used as a control. For comparison, plates with a covalently attached acrylamide coating (Corning Costar Catalog #2500) and with a stearic acid coating were also tested. The stearic acid coating was applied in the same manner as the non-ionic surfactants again using a 0.1% (w/v) solution.
The plates were gamma sterilized at 1.5 Mrad and then inoculated with 5.6×10^4 MDCK […] per well in 1 ml of complete media containing 5% FBS (Fetal Bovine Serum). Incubation was carried out at 37° C. in a 5% CO2 atmosphere for two days. The plates were fixed and stained, and cell attachment was noted. Following this, the wells were stained using the colloidal gold technique to detect bound protein. Only visual observations were made.

Data set [5] concerns ^125I-IgG (goat anti-mouse). Kind of data set: Radiometric determination of IgG binding to surfactant-coated polystyrene microtiter wells. As to conditions: for Total IgG binding, Non-Sterilized: coated polystyrene wells; for Total IgG binding, Non-Sterilized / Tight IgG binding, Non-Sterilized: not sterilized; for Total IgG binding, Non-Sterilized / Total IgG binding, Sterilized: after three PBS washes; for Total IgG binding, Sterilized / Tight IgG binding, Sterilized: gamma sterilized (1.5 Mrad); for Tight IgG binding, Sterilized / Tight IgG binding, Non-Sterilized: after two hours in PBS-Tween (0.05%). Here is the method:
The hydrophobic surfaces used were flat bottom microtiter plates composed of high binding polystyrene (Corning Costar No. 2581) and medium binding polystyrene (Corning Costar No. 2587). Testing was performed with and without gamma radiation sterilization using cobalt 60 (1.5 Mrad).
The surfactants were applied to the test plates as described in Materials and Methods, followed by sterilization where indicated.
Levels of protein binding were determined using a radiolabeled protein, namely, ^125I-IgG (goat anti-mouse) purchased from DuPont/NEN. Unlabeled IgG in sodium carbonate buffer pH 9.2 was spiked with ^125I-IgG so that the final concentration of labeled IgG and cold IgG in the test solution was 10 μg/mL.
Aliquots of 0.1 milliliters of the protein solution were placed in quadruplicate in the wells of 8-well strips removed from the test microtiter plates. The wells were incubated overnight at 4° C. with shaking. The supernatants were removed from the wells, followed by three washes with 0.2 mL of PBS. The wells were then dried and individually counted to determine “total” IgG binding. After determining “total” binding, the wells were incubated for two hours in 0.2 mL of PBS-Tween (0.05%) at room temperature with shaking. The supernatants were removed from the wells followed by three washes with 0.2 mL of PBS. The wells were dried and individually counted to determine “tight” IgG binding.
Untreated high binding and medium binding plates were used as controls. A comparative experiment was also performed in which a BSA protein coating was used in place of a surfactant coating. The BSA was preabsorbed onto the walls of the wells and then washed to remove excess material. Testing was then performed using the radiolabeled IgG solution as described above.
Radiolabel measurements were performed in a double blind study at BioMolecular Assays (Woburn, Mass.). IgG binding values per microwell were converted to ng/cm^2 values using a surface area of 0.94 cm^2 for a 0.1 mL volume.

The subject of data set [6] is HRP-Goat A'Mouse IgG. Kind of data set: Enzymatic determination of protein binding to coated medium binding polystyrene plate. As to conditions: coated medium binding PS; versus uncoated high binding polystyrene plate; absorbance 405 nm. Here is the method: The surfactants were coated onto a medium binding polystyrene plate (Corning Costar No. 2587) as described in Material and Methods. A medium binding polystyrene plate (Corning Costar No. 2587) and a high binding polystyrene plate (Corning Costar No. 2581) were used as controls.
(a) HRP-Goat A'Mouse IgG: Kirkegaard & Perry Laboratories, Inc. Catalog No. 074-1806. Stock solution: 0.5 mg/ml; working concentration: 0.04 μg/ml. The working concentration was obtained by adding 11 μl of the stock solution per 25 mls of PBS pH 7.4 to produce a work stock (WS), and then diluting 1:6 (i.e., 10 mls WS+50 mls PBS pH 7.4).
(1) 100 μl-well of HRP-Goat A'Mouse IgG at a concentration of 0.04 μg/ml were added to the test wells and incubated for 1 hour at room temperature.
(2) The wells were then washed 5 times with the 1M wash solution. Each wash include a 5 minute soak followed by decanting.
(3) 100 μl/well of substrate (30 mls ABTS+30 mls H2O2) were added to the test wells and incubated for 15 minutes at room temperature in the dark.
(4) 100 μl/well of stopping solution (1% SDS) were added to the test wells.
(5) The plates were then shaken and read at 405 nm.
(6) Reduction in binding was determined by comparing the absorbance measured in step (5) with the absorbance measured for a high binding polystyrene plate which had not been treated with a non-ionic surfactant but otherwise subjected to steps (1) to (5).

Data set [7] deals with rat. As to conditions: cited from earlier work.
For data set [8], the system named is MDCK cells. Kind of data set: Cytotoxicity of extracts of coated plates. The format is cell-based. As to conditions: media extract of coated plates (37° C., 48 hours), MDCK 72 hours, Gram Crystal Violet. Here is the method: Cytotoxicity experiments were performed using MDCK cells. The non-ionic surfactants tested were Pluronic L-121, L-122, and P-123; Span 80 and 85; and Brij 30, 72 and 93. These molecules were coated onto 24-well plates (Corning Costar #9447) from 0.1% (w/v) in isopropanol. Untreated polystyrene and normal tissue culture treated polystyrene (Corning Costar #25820) 24-well plates were used as controls. All plates were incubated at 37° C. for 48 hours with 2 ml/well of complete DMEM media containing 10% Fetal Bovine Serum (FBS). This incubation was performed in order to extract any potentially toxic compounds from the coated surface into the cell growth serum. The FBS solutions were then transferred to tissue culture treated polystyrene and each well was inoculated with ≈2×10^4 cells/well of MDCK cells, and then incubated at 37° C. for 72 hours in a 5% CO2 atmosphere. Cells were then stained with Gram Crystal Violet.

Data set [9] relates to BSA. Kind of data set: Polymer blends molded into petri dishes, BSA binding by colloidal gold. The conditions noted are these: blended at 5% into polypropylene; silver enhancer.
Description: (§1) Low binding non-ionic surfactant molecules were blended at 5% (except as noted in Table 13) into a base polymer using a twin screw extruder, then injection molded into the shape of 35 mm petri dishes. Proteins tested were BSA and Fetal Bovine Serum (FBS). Protein binding was determined using a colloidal gold staining procedure as described above. In the case of the polypropylene and EVA blends, a silver enhancer was used (Sigma Chem. Co., St, Louis, Mo., Kit #SE-100).
The test system of data set [10] is IgG. Kind of data set: Coating durability using water washes, IgG binding by colloidal gold. Here is the method: Polystyrene plates having 24 wells (Corning Costar #9447) were coated with these surfactants as described in Materials and Methods. Durability was tested by adding dI H2O to the wells of a test plate (3.0 mls/well), following which the plate was placed on a rocker table. […] The protein solution was incubated with the plate on a rocker table for 30 minutes at 23° C., following which the plate was H2O rinse 3× (3 mls each time). The colloidal gold staining procedure described above was used to reveal bound protein. The staining comprised an overnight incubation on a rocker table at 23° C., a dI H2O rinse, drying at room temperature, and reading at 550 nm.

For data set [11], the system named is Fetal Bovine Serum (FBS). Kind of data set: Polymer blends molded into petri dishes, FBS protein binding by colloidal gold. As to conditions: blended at 5% into polypropylene; silver enhancer.
Description: as §1

Regarding `CCCCCCCCCCCCCCCCOCCOCCO` [PEO(2) CETYL ETHER], the “Bound Protein Absorbance at 550 nm” value in [1] is on record as 0.00. Besides, the “IgG Protein Binding Absorbance (550 nm)” value in data set [2] amounted to 0.00. In [3], the “Absorbance (550 nm) pH = 9.2” value is recorded as 0.00, the “Absorbance (550 nm) pH = 7.4” value came out at 0.00 and the “Absorbance (550 nm) pH = 4.6” value was 0.00. In addition, the “Visual Color Upon Protein Staining” value in data set [4] is on record as “None”. Further, in [5], the “Total IgG binding, Non-Sterilized” value came out at 18 ng/cm^2; the “Total IgG binding, Sterilized” value is reported as 54 ng/cm^2; the “Tight IgG binding, Sterilized” value was determined as 25 ng/cm^2; the “Tight IgG binding, Non-Sterilized” value was 11 ng/cm^2. Also, the “% Reduction in Protein Binding” value in data set [6] is given as 99.9%.

With `CCCCCCCCCCCCCCCCCC(=O)OCCOCCOCCOCCOCCOCCOCCOCCO` [PEO(8) STEARATE], the LD50 in data set [7] is over 31 grams/Kg. Further, in data set [2], the “IgG Protein Binding Absorbance (550 nm)” value is 0.00. In data set [3], the “Absorbance (550 nm) pH = 9.2” value was determined as 0.00, the “Absorbance (550 nm) pH = 7.4” value came to 0.00 and the “Absorbance (550 nm) pH = 4.6” value stood at 0.00. In data set [5], the “Total IgG binding, Non-Sterilized” value stood at 6 ng/cm^2; the “Total IgG binding, Sterilized” value is reported as 15 ng/cm^2; the “Tight IgG binding, Sterilized” value stood at 9 ng/cm^2; the “Tight IgG binding, Non-Sterilized” value is 3 ng/cm^2. In data set [6], the “% Reduction in Protein Binding” value is listed as 99.1%.

With `O=[As]O[As]=O` (centres unmarked) [As2O3, reference compound], the LD50 in data set [7] is reported as 0.02 grams/Kg.

For SORBITOL TRI-OLEATE, in data set [8], the “cell growth and morphology” value is “confluent cell growth with normal cell morphology”. The “Bound Protein Absorbance (550 nm) BSA” value in data set [9] is given as 0.000. In addition, the “Absorbance (550 nm) Initial” value in [10] (coated polystyrene, no water wash) worked out at 0.00. Besides, the “Absorbance (550 nm) 1 Time 1 hr 23° C.” value in data set [10] (dI H2O wash 1 time, 1 hr, 23° C.) is 0.00. In data set [10] (dI H2O wash 1 time, 24 hr, 23° C.), the “Absorbance (550 nm) 1 Time 24 hr 23° C.” value amounted to 0.00. In addition, in data set [10] (dI H2O wash 1 time, 24 hr, 37° C.), the “Absorbance (550 nm) 1 Time 24 hr 37° C.” value is listed as 0.00. Moreover, the “Absorbance (550 nm) 1 Time 24 hr 70° C.” value in [10] (dI H2O wash 1 time, 24 hr, 70° C.) came to 0.00. Also, the “Absorbance (550 nm) 6 Times 30 min each 23° C.” value in data set [10] (dI H2O wash 6 times, 30 min each, 23° C.) amounted to 0.00. Also, the “Bound Protein Absorbance (550 nm) FBS” value in data set [11] is 0.000.

Regarding `[Cl-].[Na+]` [NaCl, reference compound], the LD50 in data set [7] (in vivo) was 4 grams/Kg.

Source of the values: patent publication US7776572B2, “Method for reducing loss of enzyme activity during storage” (Corning Incorporated, priority 1996, dated 2010).
